According to paper PMC11640836, “Aminomethylmorpholino Nucleosides as Novel Inhibitors of PARP1 and PARP2: Experimental and Molecular Modeling Analyses of Their Selectivity and Mechanism of Action” (International Journal of Molecular Sciences, 2024):

Experiments:
[1] = target: T1, PARP2 (Mus musculus, UniProt O88554); experiment: PARP2 autopoly(ADP-ribosyl)ation (autoPARylation) enzyme assay with [32P]NAD+; assay type: biochemical, murine; settings: for remaining activity at 1000 µM: 5 min, 1 mM compound, autoPARylation reaction, read-out: Residual catalytic activity of PARP2 in the presence of a 1 mM compound; for IC50: 0.6 mM [32P]NAD+, means ±SDs of three independent experiments, read-out: IC50, PARP2 activity in the autoPARylation reaction
T1 construct: made in house; host or cells: insect cells
T1 sequence (O88554 whole entry): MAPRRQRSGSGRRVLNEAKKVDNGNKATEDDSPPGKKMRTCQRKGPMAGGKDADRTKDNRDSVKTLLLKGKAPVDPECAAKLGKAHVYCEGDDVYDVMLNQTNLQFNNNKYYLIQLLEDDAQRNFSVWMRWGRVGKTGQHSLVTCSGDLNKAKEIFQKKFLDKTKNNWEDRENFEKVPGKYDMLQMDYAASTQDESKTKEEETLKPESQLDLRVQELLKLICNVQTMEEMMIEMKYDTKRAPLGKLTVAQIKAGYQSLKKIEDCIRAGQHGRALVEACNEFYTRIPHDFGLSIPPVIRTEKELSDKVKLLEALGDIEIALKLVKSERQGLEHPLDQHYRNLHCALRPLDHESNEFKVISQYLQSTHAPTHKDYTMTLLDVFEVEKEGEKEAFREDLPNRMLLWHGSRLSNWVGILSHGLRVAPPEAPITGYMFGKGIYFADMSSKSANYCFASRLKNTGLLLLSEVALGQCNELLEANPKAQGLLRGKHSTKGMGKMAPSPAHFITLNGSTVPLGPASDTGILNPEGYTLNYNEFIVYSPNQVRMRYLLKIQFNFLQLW
Description: (§1) Human recombinant poly(ADP-ribose) polymerase 1 (PARP1) and murine poly(ADP-ribose) polymerase 2 (PARP2) were expressed in insect cells and purified as previously described. Radioactively labeled [^32P]NAD^+ was synthesized from [α-^32P]ATP, according to the previously developed method. The reaction of autopoly(ADP-ribosyl)ation was performed as follows. For PARP1, the reaction mixture contained 50 mM of Tris-HCl, a pH of 8.0, 10 mM of MgCl2, 150 mM of NaCl, 7 mM of β-mercaptoethanol, 2 A260/mL of activated DNA, 0.3 mM of [^32P]NAD^+, and 1 of the tested compounds. The reaction was initiated by adding PARP1 up to 200 nM, and the reaction mixtures were incubated at 37 °C for 2 min. For PARP2, the reaction mixture contained 50 mM of Tris-HCl, a pH of 8.0, 3 mM of spermine, 150 mM of NaCl, 7 mM of β-mercaptoethanol, 2 A260/mL of activated DNA, 0.6 mM of [^32P]NAD^+, and 1 of the tested compounds. The reaction was initiated by adding PARP2 up to 800 nM, and the reaction mixtures were incubated at 37 °C for 5 min. The tested compounds were added at six fixed concentrations, specified for each of them. The reaction was stopped by dropping 10 µL aliquots onto Whatman 1 filter papers soaked in 5% trichloroacetic acid (TCA). The filters were washed 4 times with 150 mL of 5% TCA and dried in the air after the removal of TCA with 90% ethanol. The introduction of radioactivity into the reaction product was quantified using a Typhoon FLA 9500 imager (GE Healthcare, Chicago, IL, USA). The half-maximal inhibitory concentration (IC50) values were determined using a six-point concentration response curve in three independent experiments.

[2] = target: T2, PARP1 (Homo sapiens, UniProt P09874); experiment: PARP1 autopoly(ADP-ribosyl)ation (autoPARylation) enzyme assay with [32P]NAD+; assay type: biochemical; settings: for Residual catalytic activity of PARP1 in the presence of a 1 mM compound: autoPARylation reaction; for IC50: 0.3 mM [32P]NAD+, means ±SDs of three independent experiments, read-out: IC50, PARP1 activity in the autoPARylation reaction
T2 construct: made in house; host or cells: insect cells
T2 sequence (P09874 whole entry): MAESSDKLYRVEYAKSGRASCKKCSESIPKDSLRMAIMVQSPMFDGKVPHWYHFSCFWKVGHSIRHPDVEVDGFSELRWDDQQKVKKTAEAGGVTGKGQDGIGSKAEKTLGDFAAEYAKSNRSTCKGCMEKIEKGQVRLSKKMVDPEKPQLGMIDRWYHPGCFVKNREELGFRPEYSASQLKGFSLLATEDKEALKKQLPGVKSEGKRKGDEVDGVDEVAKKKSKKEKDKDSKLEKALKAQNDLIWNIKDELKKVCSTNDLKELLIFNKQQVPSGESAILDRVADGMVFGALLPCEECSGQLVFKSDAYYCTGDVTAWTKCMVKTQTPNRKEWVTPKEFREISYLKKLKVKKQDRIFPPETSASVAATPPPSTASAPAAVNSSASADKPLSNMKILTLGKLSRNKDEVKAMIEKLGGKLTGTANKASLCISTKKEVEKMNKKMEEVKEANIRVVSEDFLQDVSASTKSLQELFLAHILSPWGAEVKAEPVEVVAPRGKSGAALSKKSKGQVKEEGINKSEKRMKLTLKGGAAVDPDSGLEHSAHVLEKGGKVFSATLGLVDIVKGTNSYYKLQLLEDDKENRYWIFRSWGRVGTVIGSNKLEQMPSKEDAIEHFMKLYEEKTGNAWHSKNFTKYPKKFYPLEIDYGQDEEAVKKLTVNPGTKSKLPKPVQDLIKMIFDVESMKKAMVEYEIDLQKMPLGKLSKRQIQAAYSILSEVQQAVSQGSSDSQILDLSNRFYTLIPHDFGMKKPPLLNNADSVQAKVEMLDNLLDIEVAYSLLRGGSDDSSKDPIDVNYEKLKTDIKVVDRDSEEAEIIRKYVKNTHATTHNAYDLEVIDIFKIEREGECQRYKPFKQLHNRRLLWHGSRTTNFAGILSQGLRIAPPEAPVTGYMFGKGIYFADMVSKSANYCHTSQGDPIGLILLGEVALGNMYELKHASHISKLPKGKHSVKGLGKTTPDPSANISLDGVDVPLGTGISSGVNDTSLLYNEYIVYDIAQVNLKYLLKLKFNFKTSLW
Description: as §1

[3] = system: PARP1; settings: cited from earlier work
[4] = system: PARP2; settings: cited from earlier work

remaining activity at 1000 µM [1]	Residual catalytic activity of PARP1 in the presence of a 1 mM compound [2]	SMILES	also measured
> 30%	>30%	NC[C@@H]1CN(CC(=O)O)C[C@H](n2cnc3c(N)ncnc32)O1 [Compound 1]	
		Cc1cn([C@H]2CN(CC(=O)O)C[C@@H](CN)O2)c(=O)[nH]c1=O [Compound 2]	IC50 [1]: 100 ± 12 µM; IC50 [2]: 60 ± 14 µM
> 30%	>30%	NC[C@@H]1CN(CC(=O)O)C[C@H](n2cnc3c(=O)[nH]c(N)nc32)O1 [Compound 3]	
> 30%	>30%	NC[C@@H]1CN(CC(=O)O)C[C@H](n2ccc(N)nc2=O)O1 [Compound 4]	
		O=c1[nH]c(=O)n([C@@H]2O[C@H](CO)[C@@H](O)[C@H]2O)cc1I [Compound 5-I-Urd]	IC50 [3]: 49 µM; IC50 [4]: 27 µM
> 30%	>30%	NC[C@@H]1CN(CC(=O)O)C[C@H](n2ccc(=O)[nH]c2=O)O1 [Compound 5]	
		NC[C@@H]1CN(CC(=O)O)C[C@H](n2cc(I)c(=O)[nH]c2=O)O1 [Compound 6, 2′-aminomethylmorpholino glycine 5-I-uracyl nucleoside]	IC50 [1]: 142 ± 6 µM; IC50 [2]: 70 ± 12 µM

SMILES	remaining activity at 1000 µM [1]	Residual catalytic activity of PARP1 in the presence of a 1 mM compound [2]	also measured
NC[C@@H]1CNC[C@H](n2cnc3c(N)ncnc32)O1 [Compound 7]	> 30%	>30%	
